Data: patent publication US20230233569A1 (Revolution Medicines, Inc., priority 2020, published 2023)
Read-outs that look alike come from different tables or passages of the source.

Legend:
Capan-1 (K-Ras G12V) = experiment: CellTiter-Glo cell viability assay, 5-day treatment; format: cell-based; conditions: Homo sapiens, CAPAN-1, 120 h, 5-day treatment; read-out: Capan-1 Cell Viability assay data (K-Ras G12V, IC50)
Method in brief: (§1)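 Seeded cells received test compound by direct dispensing. On day 5 the plates sat at room temperature approximately 30 minutes, then luminescence was measured. Data were normalized to DMSO and curve-fitted with four parameters.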

NCI-H358 (K-Ras G12C) = experiment: as above; format: cell-based; conditions: Homo sapiens, NCI-H358, 120 h, 5-day treatment; read-out: H358 Cell Viability assay data (K-Ras G12C, IC50)
Method in brief: as §1

KRAS G13D = KRAS G13D (Homo sapiens, UniProt P01116+P62937, G13D); experiment: Disruption of BRAF RBD interaction with Ras (FRET / MOA assay, with Cyclophilin A); format: biochemical
Method in brief: (§2)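 Here, compound titrations (ten points, factor 3, from 30 μM final) act on nucleotide-bound K-Ras and Cyclophilin A, and ternary complex formation disrupts the RAF RBD interaction.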

KRAS G12V = KRAS G12V (Homo sapiens, UniProt P01116+P62937, G12V); experiment: as above; format: biochemical
Method in brief: as §2

KRAS G12D = KRAS G12D (Homo sapiens, UniProt P01116+P62937, G12D); experiment: as above; format: biochemical
Method in brief: as §2

KRAS G12S = KRAS G12S (Homo sapiens, UniProt P01116+P62937, G12S); experiment: as above; format: biochemical
Method in brief: as §2

KRAS WT = KRAS WT (Homo sapiens, UniProt P01116+P62937); experiment: as above; format: biochemical
Method in brief: as §2

KRAS G12C = KRAS G12C (Homo sapiens, UniProt P01116+P62937, G12C); experiment: as above; format: biochemical
Method in brief: as §2

NRAS G12C = NRAS G12C (Homo sapiens, UniProt P01111+P62937, G12C); experiment: as above; format: biochemical
KRAS G13C = KRAS G13C (Homo sapiens, UniProt P01116+P62937, G13C); experiment: as above; format: biochemical
Method in brief: as §2

NRAS Q61R = NRAS Q61R (Homo sapiens, UniProt P01111+P62937, Q61R); experiment: as above; format: biochemical; conditions: NRAS Q61R; read-out: NRAS Q61R FRET data IC50
Method in brief: (§3)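 IC50 reflects compound-driven Ras:Cyclophilin A ternary complex displacing BRAF RBD, read as lowered TR-FRET ratio relative to DMSO after Eu anti-His (10 nM) and APC anti-GST (50 nM) detection for 1.5 h. Prior incubation 3 h, 25° C, with 12.5 nM GMPPNP-loaded Ras, 50 nM BRAF RBD, 25 μM Cyclophilin A; top compound 30 μM.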

NRAS WT = NRAS WT (Homo sapiens, UniProt P01111+P62937); experiment: as above; format: biochemical; conditions: NRAS WT; read-out: NRAS WT FRET data IC50
Method in brief: as §3

NRAS Q61K = NRAS Q61K (Homo sapiens, UniProt P01111+P62937, Q61K); experiment: as above; format: biochemical; conditions: NRAS Q61K; read-out: NRAS Q61K FRET data IC50
Method in brief: as §3

KRAS Q61H = KRAS Q61H (Homo sapiens, UniProt P01116+P62937, Q61H); experiment: as above; format: biochemical; conditions: KRAS Q61H; read-out: KRAS Q61H FRET data IC50
Method in brief: as §3

[1] = KRAS G13D, read-out: KRAS G13D FRET data IC50
[2] = KRAS G12V, read-out: KRAS G12V FRET data IC50
[3] = read-out: KRAS G12D FRET data, IC50
[4] = read-out: KRAS G12S FRET data, IC50
[5] = KRAS WT, read-out: KRAS WT FRET data IC50
[6] = read-out: KRAS G12C FRET data, IC50
[7] = NRAS G12C, read-out: NRAS G12C FRET data IC50
[8] = read-out: KRAS G13C FRET data, IC50

Chain of NRAS WT (P01111 whole entry): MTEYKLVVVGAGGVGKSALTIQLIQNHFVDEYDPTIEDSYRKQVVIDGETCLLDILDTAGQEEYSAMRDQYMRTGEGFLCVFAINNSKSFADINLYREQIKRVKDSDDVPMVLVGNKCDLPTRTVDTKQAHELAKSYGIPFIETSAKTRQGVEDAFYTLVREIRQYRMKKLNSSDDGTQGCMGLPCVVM
Chain of NRAS WT (P62937 whole entry): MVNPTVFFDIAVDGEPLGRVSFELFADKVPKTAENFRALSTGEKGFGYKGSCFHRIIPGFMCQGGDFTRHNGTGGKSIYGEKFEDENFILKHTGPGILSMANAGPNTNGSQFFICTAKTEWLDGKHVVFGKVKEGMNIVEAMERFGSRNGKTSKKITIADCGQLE
Chain of NRAS Q61K (P01111 whole entry Q61K): as the sequence (P01111 whole entry) above, with Q61K counted along it
Chain of NRAS Q61K (P62937 whole entry): as the sequence (P62937 whole entry) above
Chain of NRAS G12C (P01111 whole entry G12C): as the sequence (P01111 whole entry) above, with G12C counted along it
Chain of NRAS G12C (P62937 whole entry): as the sequence (P62937 whole entry) above
Chain of KRAS G12C (P01116 1-169 isoform P01116-2 G12C): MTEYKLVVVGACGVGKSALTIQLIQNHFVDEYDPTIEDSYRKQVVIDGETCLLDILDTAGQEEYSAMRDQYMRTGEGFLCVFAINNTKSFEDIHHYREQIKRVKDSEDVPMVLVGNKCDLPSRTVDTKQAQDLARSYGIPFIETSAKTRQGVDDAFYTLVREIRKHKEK
Chain of KRAS G12C (P62937 whole entry): as the sequence (P62937 whole entry) above
Chain of KRAS G13D (P01116 1-169 isoform P01116-2 G13D limits assumed): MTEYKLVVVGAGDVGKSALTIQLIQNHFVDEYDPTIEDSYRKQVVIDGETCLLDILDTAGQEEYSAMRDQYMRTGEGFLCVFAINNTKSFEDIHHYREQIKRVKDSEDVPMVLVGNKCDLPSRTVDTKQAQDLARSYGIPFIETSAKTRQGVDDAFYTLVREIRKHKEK
Chain of KRAS G13D (P62937 whole entry): as the sequence (P62937 whole entry) above
Chain of KRAS G12S (P01116 1-169 isoform P01116-2 G12S limits assumed): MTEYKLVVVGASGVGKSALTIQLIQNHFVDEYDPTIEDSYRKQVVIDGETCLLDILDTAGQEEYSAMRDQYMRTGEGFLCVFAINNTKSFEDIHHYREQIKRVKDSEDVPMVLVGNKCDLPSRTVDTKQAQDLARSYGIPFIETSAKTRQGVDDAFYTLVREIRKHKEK
Chain of KRAS G12S (P62937 whole entry): as the sequence (P62937 whole entry) above
Chain of NRAS Q61R (P01111 whole entry Q61R): as the sequence (P01111 whole entry) above, with Q61R counted along it
Chain of NRAS Q61R (P62937 whole entry): as the sequence (P62937 whole entry) above
Chain of KRAS G13C (P01116 1-169 isoform P01116-2 G13C): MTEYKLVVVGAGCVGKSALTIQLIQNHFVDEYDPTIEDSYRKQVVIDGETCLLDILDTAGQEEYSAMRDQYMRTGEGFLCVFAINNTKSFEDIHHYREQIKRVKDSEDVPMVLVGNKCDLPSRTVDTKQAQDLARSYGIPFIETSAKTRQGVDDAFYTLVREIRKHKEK
Chain of KRAS G13C (P62937 whole entry): as the sequence (P62937 whole entry) above
Chain of KRAS Q61H (P01116 1-169 isoform P01116-2 Q61H limits assumed): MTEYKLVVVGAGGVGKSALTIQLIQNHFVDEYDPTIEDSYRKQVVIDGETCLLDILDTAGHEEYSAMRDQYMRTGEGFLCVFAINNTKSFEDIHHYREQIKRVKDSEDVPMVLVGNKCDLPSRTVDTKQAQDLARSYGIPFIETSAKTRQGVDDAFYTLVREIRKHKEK
Chain of KRAS Q61H (P62937 whole entry): as the sequence (P62937 whole entry) above
Chain of KRAS G12D (P01116 1-169 isoform P01116-2 G12D limits assumed): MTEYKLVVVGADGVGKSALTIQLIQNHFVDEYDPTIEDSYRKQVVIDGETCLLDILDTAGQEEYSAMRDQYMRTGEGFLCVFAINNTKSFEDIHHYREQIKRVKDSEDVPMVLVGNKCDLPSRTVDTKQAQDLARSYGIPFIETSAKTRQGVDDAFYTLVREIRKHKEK
Chain of KRAS G12D (P62937 whole entry): as the sequence (P62937 whole entry) above
Chain of KRAS WT (P01116 1-169 isoform P01116-2 limits assumed): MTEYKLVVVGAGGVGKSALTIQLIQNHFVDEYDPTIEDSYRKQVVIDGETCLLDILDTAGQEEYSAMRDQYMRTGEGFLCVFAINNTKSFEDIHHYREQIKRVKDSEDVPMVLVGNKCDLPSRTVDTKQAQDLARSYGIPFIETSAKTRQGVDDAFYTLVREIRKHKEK
Chain of KRAS WT (P62937 whole entry): as the sequence (P62937 whole entry) above
Chain of KRAS G12V (P01116 1-169 isoform P01116-2 G12V limits assumed): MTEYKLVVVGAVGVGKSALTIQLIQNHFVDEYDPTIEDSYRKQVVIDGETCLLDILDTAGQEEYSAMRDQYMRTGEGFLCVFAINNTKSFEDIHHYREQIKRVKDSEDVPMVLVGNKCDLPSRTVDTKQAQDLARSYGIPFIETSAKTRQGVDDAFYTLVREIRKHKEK
Chain of KRAS G12V (P62937 whole entry): as the sequence (P62937 whole entry) above

SMILES	IC50 (NCI-H358 (K-Ras G12C)) [nM]	IC50 (KRAS G13D; [1]) [nM]	IC50 (KRAS G12V; [2]) [nM]	IC50 (KRAS G12D; [3]) [nM]	IC50 (KRAS G12S; [4]) [nM]	IC50 (KRAS WT; [5]) [nM]	IC50 (KRAS G12C; [6]) [nM]	IC50 (NRAS G12C; [7]) [nM]	IC50 (KRAS G13C; [8]) [nM]	IC50 (NRAS Q61R) [nM]	IC50 (NRAS WT) [nM]	IC50 (NRAS Q61K) [nM]	IC50 (KRAS Q61H) [nM]	IC50 (Capan-1 (K-Ras G12V)) [nM]	also measured
CCn1c(-c2cccnc2[C@H](C)OC)c2c3cc(ccc31)-c1csc(n1)C[C@H](NC(=O)[C@H](C(C)C)N(C)C(=O)N1CCN(C(=O)[C@H]3CCCN3C)CC1)C(=O)N1CCC[C@H](N1)C(=O)OCC(C)(C)C2 (atropisomer, axis not shown) [Example A595]	10 to 100	100 to 1000	100 to 1000	100 to 1000	100 to 1000	100 to 1000	10 to 100	10 to 100	100 to 1000	100 to 1000	100 to 1000	10 to 100	10 to 100	100 to 1000	
CCn1c(-c2cccnc2[C@H](C)OC)c2c3cc(ccc31)-c1csc(n1)C[C@H](NC(=O)[C@H](C(C)C)N(C)C(=O)N1C[C@H]3OCCN(C)[C@H]3C1)C(=O)N1CCC[C@H](N1)C(=O)OCC(C)(C)C2 (atropisomer, axis not shown) [Example A451]	10 to 100	1000 to 10000	100 to 1000	1000 to 10000	100 to 1000	100 to 1000	100 to 1000	100 to 1000	100 to 1000	100 to 1000	100 to 1000	10 to 100	100 to 1000	10 to 100	
CCn1c(-c2cccnc2[C@H](C)OC)c2c3cc(ccc31)-c1csc(n1)C[C@H](NC(=O)[C@H](C(C)C)N(C)C(=O)N(C)[C@@H]1CCCN(C)C1)C(=O)N1CCC[C@H](N1)C(=O)OCC(C)(C)C2 [Example A587]	10 to 100	100 to 1000	1000 to 10000	100 to 1000	100 to 1000	100 to 1000	100 to 1000	100 to 1000	100 to 1000	100 to 1000	100 to 1000	100 to 1000	100 to 1000	10 to 100	
CCn1c(-c2cccnc2[C@H](C)OC)c2c3cc(ccc31)-c1csc(n1)C[C@H](NC(=O)[C@H](C(C)C)N(C)C(=O)N1CCOC[C@@H]1CN(C)C)C(=O)N1CCC[C@H](N1)C(=O)OCC(C)(C)C2 [Example A572]	100 to 1000									1000 to 10000	1000 to 10000	1000 to 10000	100 to 1000	1000 to 10000	IC50 (KRAS G13D; KRAS G13D FRET data IC50, KRAS G13D): 1000 to 10000 nM; IC50 (KRAS G12V; KRAS G12V FRET data IC50, KRAS G12V): 1000 to 10000 nM; IC50 (KRAS G12D; KRAS G12D FRET data, IC50): 1000 to 10000 nM; IC50 (KRAS G12S; KRAS G12S FRET data, IC50): 1000 to 10000 nM; IC50 (KRAS WT; KRAS WT FRET data IC50, KRAS WT): 1000 to 10000 nM; IC50 (KRAS G12C; KRAS G12C FRET data, IC50): 1000 to 10000 nM; IC50 (NRAS G12C; NRAS G12C FRET data IC50, NRAS G12C): 1000 to 10000 nM; IC50 (KRAS G13C; KRAS G13C FRET data, IC50): 1000 to 10000 nM

More lines, main results first:

IC50 (NCI-H358 (K-Ras G12C)) [nM]	IC50 (KRAS G13D; [1]) [nM]	IC50 (KRAS G12V; [2]) [nM]	IC50 (KRAS G12D; [3]) [nM]	IC50 (KRAS G12S; [4]) [nM]	IC50 (KRAS WT; [5]) [nM]	IC50 (KRAS G12C; [6]) [nM]	IC50 (NRAS G12C; [7]) [nM]	IC50 (KRAS G13C; [8]) [nM]	IC50 (NRAS Q61R) [nM]	IC50 (NRAS WT) [nM]	IC50 (NRAS Q61K) [nM]	IC50 (KRAS Q61H) [nM]	SMILES	IC50 (Capan-1 (K-Ras G12V)) [nM]	also measured
10 to 100	10 to 100	10 to 100	100 to 1000	10 to 100	10 to 100	10 to 100	< 10	10 to 100	10 to 100	10 to 100	10 to 100	10 to 100	CCn1c(-c2cccnc2[C@H](C)OC)c2c3cc(ccc31)-c1csc(n1)C[C@H](NC(=O)[C@H](CC1CC1)N(C)C(=O)N1CC(OC)C1)C(=O)N1CCC[C@H](N1)C(=O)OCC(C)(C)C2 (atropisomer, axis not shown) [Example A578]	100 to 1000	
< 10	100 to 1000	100 to 1000	100 to 1000	10 to 100	10 to 100	10 to 100	10 to 100	100 to 1000	10 to 100	10 to 100	10 to 100	10 to 100	CCn1c(-c2cccnc2[C@H](C)OC)c2c3cc(ccc31)-c1csc(n1)C[C@H](NC(=O)[C@H](C(C)C)N(C)C(=O)N1CCCOCC1)C(=O)N1CCC[C@H](N1)C(=O)OCC(C)(C)C2 (atropisomer, axis not shown) [Example A335]	10 to 100	
